Results: article PMC3961628 (American Journal of Cardiovascular Drugs, 2013)
Like-named read-outs stand apart in the source and are kept apart here.

Legend:
[1] = cited from earlier work
Safety assessments = assay type: in vivo, healthy human subjects
[2] = cited from earlier work; remark: listed apart in the source
[3] = single oral 20-mg radiolabeled dose; bile collected 3–8 h after dose; cited from earlier work
[4] = system: major uptake transporters; conditions: cited from earlier work
[5] = Stability of apixaban in human plasma; assay type: in vitro ADME; conditions: at −20 °C
[6] = BDC rats, intravenous [14C]apixaban; cited from earlier work
[7] = BDC dogs, cited from earlier work
[8] = assay type: in vivo, healthy human subjects; conditions: for AUC(0-t) / AUC(0-inf) / Cmax: geometric mean (% CV); for AUC(0-inf): AUCINF; for Cmax: C max; for half-life: T ½
[9] = apixaban 2.5 mg solution released in the ascending colon
[10] = apixaban 2.5 mg solution released in the distal small bowel
[11] = human, plasma, oral, 20 mg, Treatment A: apixaban 20 mg alone, n = 18
[12] = human, plasma, oral, Treatment B: apixaban 20 mg + activated charcoal 2 h after apixaban, n = 14
[13] = human, plasma, oral, Treatment C: apixaban 20 mg + activated charcoal 6 h after apixaban, n = 17

COc1ccc(-n2nc(C(N)=O)c3c2C(=O)N(c2ccc(N4CCCCC4=O)cc2)CC3)cc1 [apixaban, 1-(4-methoxyphenyl)-7-oxo-6-(4-(2-oxopiperidin-1-yl)phenyl)-4,5,6,7-tetrahydro-1H-pyrazolo[3,4-c]pyridine-3-carboxamide]
Oral bioavailability ([1]; background statement): approximately 50%
Effect of food and changes in gastric pH on apixaban exposure [1]: no clinically relevant effect
Terminal half-life (T ½) [1]: approximately 12 h
Time to peak plasma concentration (C max) ([1]; oral administration, immediate-release tablet, background statement): approximately 3 h
Proportion of subjects reporting adverse events (Safety assessments; apixaban 20 mg alone): 16.7%
Tolerability (Safety assessments; healthy subjects, single 20-mg doses): well tolerated
AUC(0–T) lower than with oral administration [2, 9]: 84%
C max lower than with oral administration [2, 9]: 90%
AUC(0–T) lower than with oral administration [2, 10]: approximately 60%
C max lower than with oral administration [2, 10]: approximately 60%
Biliary excretion, share of total recovered radioactivity [3]: less than 3%
Substrate status for major uptake transporters [4]: not a substrate
Stability in human plasma [5]: at least 864 days
Dose found in feces [6]: 20–30 % of the dose
Dose found in feces ([7]; intravenous [14C]apixaban): 40–50 % of the dose
Effect of activated charcoal on fecal recovery and apparent systemic clearance [7]: increased fecal recovery and apparent systemic clearance
T ½ ([8]; Treatment A: apixaban 20 mg alone, n = 18, mean (SD)): 13.4 (5.1) h
T max ([8]; Treatment C: apixaban 20 mg + activated charcoal 6 h after apixaban, n = 17, median (range)): 2.5 (1.5–4.0) h
Decrease in apixaban exposure (AUCINF) vs apixaban alone ([8]; activated charcoal administered at 2 h post-dose): 50%
Decrease in apixaban exposure (AUCINF) vs apixaban alone ([8]; activated charcoal administered at 6 h post-dose): 28%
Effect of activated charcoal on C max or T max of apixaban ([8]; charcoal at 2 or 6 h post-dose): no effect
Tmax ([8]; human, plasma, oral, 20 mg): 2.5 h
AUC(0-t) [8, 11]: 4080 ng·h/mL
AUC(0-inf) [8, 11]: 4180 ng·h/mL
Cmax [8, 11]: 380 ng/mL
AUC(0-t) ([8]; human, plasma, oral, Treatment B: apixaban 20 mg + activated charcoal 50 g 2 h after apixaban, n = 14): 2010 ng·h/mL
AUC(0-t) ([8]; human, plasma, oral, Treatment C: apixaban 20 mg + activated charcoal 50 g 6 h after apixaban, n = 17): 2950 ng·h/mL
AUC(0-inf) [8, 12]: 2030 ng·h/mL
AUC(0-inf) [8, 13]: 2980 ng·h/mL
Cmax [8, 12]: 366 ng/mL
Cmax [8, 13]: 383 ng/mL
half-life ([8]; human, plasma, oral, Treatment B: apixaban 20 mg + activated charcoal 2 h after apixaban, n = 14, mean (SD)): 5.3 h
half-life ([8]; human, plasma, oral, Treatment C: apixaban 20 mg + activated charcoal 6 h after apixaban, n = 17, mean (SD)): 4.9 h
Time for which mean plasma concentrations were quantifiable ([8]; single oral 20-mg dose without activated charcoal, LLOQ 1 ng/mL): up to 72 h
